Results taken from patent US6156798A, “Cyclobutyl-aryloxyarylsulfonylamino hydroxamic acid derivatives” (Pfizer Inc, priority 1999, dated 2000).
pIC50: −log10 of the molar value.

What was measured:
[1] = target: MMP-13 (Homo sapiens, UniProt P45452); test: Inhibition of MMP-13; type: biochemical; conditions: human recombinant MMP-13, fluorogenic substrate 10 μM
Method: Human recombinant MMP-13 is activated with 2 mM APMA (p-aminophenyl mercuric acetate) for 1.5 hours, at 37° C. and is diluted to […] in assay buffer (50 mM Tris, pH 7.5, 200 mM sodium chloride, 5 mM calcium chloride, 20 μM zinc chloride, 0.02% brij). Twenty-five microliters of diluted enzyme is added per well of a 96 well microfluor plate. The enzyme is then diluted in a 1:4 ratio in the assay by the addition of inhibitor and substrate to give a final concentration in the assay of […].
10 mM stock solutions of inhibitors are made up in dimethyl sulfoxide and then diluted in assay buffer as per the inhibitor dilution scheme for inhibition of human collagenase (MMP-1): Twenty-five microliters of each concentration is added in triplicate to the microfluor plate. The final concentrations in the assay are 30 μM, 3 μM, 0.3 μM, and 0.03 μM.
Substrate (Dnp-Pro-Cha-Gly-Cys(Me)-His-Ala-Lys(NMA)-NH2) is prepared as for inhibition of human collagenase (MMP-1) and […] is added to each well to give a final assay concentration of 10 μM. Fluorescence readings (360 nm excitation; 450 emission) are taken at time 0 and every 5 minutes for 1 hour.
Positive controls consist of enzyme and substrate with no inhibitor and blanks consist of substrate only.
IC50 's are determined as per inhibition of human collagenase (MMP-1). […]

[2] = target: T1, MMP-1 (Homo sapiens, UniProt P03956); test: Inhibition of Human Collagenase (MMP-1); type: biochemical; conditions: human recombinant collagenase, fluorogenic substrate 10 μM, room temperature
T1 sequence (P03956 100-469): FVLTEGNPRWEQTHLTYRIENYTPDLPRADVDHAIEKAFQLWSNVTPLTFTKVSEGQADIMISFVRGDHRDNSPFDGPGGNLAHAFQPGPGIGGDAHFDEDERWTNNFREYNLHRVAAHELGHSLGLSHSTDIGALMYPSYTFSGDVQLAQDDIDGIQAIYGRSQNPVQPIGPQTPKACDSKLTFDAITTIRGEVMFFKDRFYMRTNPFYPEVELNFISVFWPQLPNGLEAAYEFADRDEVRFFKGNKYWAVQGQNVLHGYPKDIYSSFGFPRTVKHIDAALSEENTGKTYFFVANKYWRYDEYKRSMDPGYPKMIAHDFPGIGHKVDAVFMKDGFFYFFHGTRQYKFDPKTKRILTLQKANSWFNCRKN
Method: Biological Assay Inhibition of Human Collacienase (MMP-1)
Human recombinant collagenase is activated with trypsin using the following ratio: 10 μg trypsin per 100 μg of collagenase. The trypsin and collagenase are incubated at room temperature for 10 minutes then a five fold excess (50 μg/10 μg trypsin) of soybean trypsin inhibitor is added.
10 mM stock solutions of inhibitors are made up in dimethyl sulfoxide and then dilute using the following Scheme:
Twenty-five microliters of each concentration is then added in triplicate to appropriate wells of a 96 well microfluor plate. The final concentration of inhibitor will be a 1:4 dilution after addition of enzyme and substrate. Positive controls (enzyme, no inhibitor) are set up in wells D1-D6 and blanks (no enzyme, no inhibitors) are set in wells D7-D12.
Collagenase is diluted to 400 ng/ml and 25 μl is then added to appropriate wells of the microfluor plate. Final concentration of collagenase in the assay is 100 ng/ml. […]
Fluorescence readings (360 nm excitation, 460 nm emission) were taken at time 0 and then at 20 minute intervals. […]
Fluorescence vs time is then plotted for both the blank and collagenase containing samples (data from triplicate determinations is averaged). […] Data is plotted as inhibitor concentration vs % control (inhibitor fluorescence divided by fluorescence of collagenase alone×100). […]

| pIC50 [1] | pIC50 [2] | SMILES |
| --- | --- | --- |
| 9.22 | 7.74 | CCOC(=O)CCN(C1(C(=O)NO)CCC1)S(=O)(=O)c1ccc(Oc2ccc(F)cc2)cc1 [1 (R^1 = ethyl), Ethyl 3-[[4-(4-fluorophenoxy)phenylsulfonyl]-1-[(N-hydroxycarbamoyl)cyclobutyl]amino]propionate] |
| 9.22 | 7.05 | O=C(O)CCN(C1(C(=O)NO)CCC1)S(=O)(=O)c1ccc(Oc2ccc(F)cc2)cc1 [1 (R^1 = H), 3-[[4-(4-Fluorophenoxy)phenylsulfonyl]-1[(N-hydroxycarbamoyl)cyclobutyl]amino]propionic acid] |
